Measurements taken from ChEMBL document CHEMBL5126651, “ALK Inhibitors for Treating Cancer, Blood, and Kidney Diseases” (ACS Med Chem Lett, 2022).

Key:
[1] = target: T1, TGF-beta receptor type-1 (Homo sapiens) (UniProt P36897); test: Inhibition of TGF-beta receptor 1 in human RD cells transfected with Smad reporter plasmid by reporter gene based One-Glo luciferase assay; format: cell-based
T1 sequence (whole entry): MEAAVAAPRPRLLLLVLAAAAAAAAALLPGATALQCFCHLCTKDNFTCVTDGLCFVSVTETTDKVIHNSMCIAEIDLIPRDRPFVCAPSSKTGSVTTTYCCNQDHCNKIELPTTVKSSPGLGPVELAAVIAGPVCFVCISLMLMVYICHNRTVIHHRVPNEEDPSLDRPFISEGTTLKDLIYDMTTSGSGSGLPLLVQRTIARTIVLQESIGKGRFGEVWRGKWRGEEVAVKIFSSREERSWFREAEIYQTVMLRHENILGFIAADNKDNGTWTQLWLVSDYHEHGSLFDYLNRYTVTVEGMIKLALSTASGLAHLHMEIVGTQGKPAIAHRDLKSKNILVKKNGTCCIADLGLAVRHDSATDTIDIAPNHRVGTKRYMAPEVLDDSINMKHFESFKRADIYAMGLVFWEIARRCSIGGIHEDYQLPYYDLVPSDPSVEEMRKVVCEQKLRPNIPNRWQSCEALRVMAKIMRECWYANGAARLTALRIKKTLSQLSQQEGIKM

TGF-beta receptor type-1 = target: T2, TGF-beta receptor type-1 (Homo sapiens, UniProt P36897); test: Displacement of Alexa Fluor labeled tracer 178 from ALK5 (unknown origin) using anti-GST antibody incubated for 60 mins by TR-FRET based LanthaScreen Eu-Kinase binding assay
T2 sequence (P36897 whole entry): T1 sequence (whole entry)

Homo sapiens = species on record: Homo sapiens; test: Selectivity ratio of IC50 for ALK2 (unknown origin) to IC50 for ALK5 (unknown origin)

SMILES | INH [1] [nM] | IC50 (TGF-beta receptor type-1) [nM] | Ratio IC50 (Homo sapiens)
Cc1cccc2c(Nc3ccnc(Nc4ccc(N5CCOCC5)cc4)n3)cnnc12 | < 100 | ≤ 10 | 10
Cc1c(F)ccc2c(Nc3ccnc(Nc4ccc(N5CCNCC5)cc4)n3)cnnc12 | < 100 | ≤ 10 | 10
Cc1cccc2c(Nc3ccnc(Nc4ccc(N5CCOCC5)c(Cl)c4)n3)cnnc12 | < 100 | ≤ 10 | 10
Cc1cccc2c(Nc3ccnc(Nc4cccc(N5CCOCC5)c4)n3)cnnc12 | < 100 | ≤ 10 | 10
Cc1cccc2c(Nc3ccnc(Nc4ccc(CC5CCNCC5)cc4)n3)cnnc12 | < 1000 | < 1000 | 10
Cc1c(F)ccc2c(Nc3ccnc(Nc4ccc(N5CCN(C)CC5)cc4)n3)cnnc12 | < 100 | ≤ 10 | 10
Cc1cc(F)cc2c(Nc3ccnc(Nc4ccc(N5CCN(C)CC5)cc4)n3)cnnc12 | < 100 | ≤ 10 | 10

Continued, values first:

INH [1] [nM] | IC50 (TGF-beta receptor type-1) [nM] | Ratio IC50 (Homo sapiens) | SMILES
< 1000 | 10 | > 10 | Cc1cccc2c(Nc3nc(Nc4cc(CN5CCNCC5)ccc4F)ncc3F)cnnc12
< 100 | ≤ 10 | 10 | Cc1cccc2c(Nc3ccnc(Nc4ccc(N5CCNCC5)c(F)c4)n3)cnnc12
< 100 | ≤ 10 | > 10 | Cc1cccc2c(Nc3ccnc(Nc4cc(F)cc(CN5CCNCC5)c4)n3)cnnc12
< 1000 | ≤ 10 | 10 | Cc1cccc2c(Nc3ccnc(Nc4cc(CN5CCNCC5)ccc4F)n3)cnnc12
< 100 | ≤ 10 | > 10 | Cc1cccc2c(Nc3ccnc(Nc4cccc(CN5CCN(C)CC5)c4)n3)cnnc12
